In paper PMC6743424, “Phenolic acid phenethylesters and their corresponding ketones: Inhibition of 5‐lipoxygenase and stability in human blood and HepaRG cells” (Pharmacology Research & Perspectives, 2019):

Columns and labels:
HepaRG cells [1] = test: Residual inhibition of 5‐LO product biosynthesis in blood after incubation with HepaRG cells; assay type: in vitro ADME, human; settings: for Inhibitory activity against 5‐LO product biosynthesis after incubation with HepaRG cells: 50 µmol/L with HepaRG cells, after 60 minutes, medium added to blood, zymosan, LTB4
Procedure: (§1) Differentiated HepaRG cells, plated in 24 well plates, were washed with hepatocyte suspension medium (Williams E‐medium without phenol red, supplemented with 2 mmol/L Glutamax and […] HEPES) before addition of hepatocyte suspension medium (250 µL/well) containing (30 or 50 µmol/L) of the test compounds or their diluent. Cells were then incubated for 7.5, 15, 30, 60 or 90 minutes at 37°C after which the medium was removed.
In experiments where the inhibitory capacity of test compounds was to be determined after incubation with HepaRG cells, 125 µL of the hepatocyte suspension medium containing test compounds that had been collected at different time points from HepaRG cultures was added to 1 mL of heparinized blood. After a 5 minutes of preincubation, blood was then stimulated with opsonized zymosan and processed for HPLC analysis of 5‐LO metabolites as described above.
Figure 6 Stability of the test compounds for the inhibition of the biosynthesis of 5‐LO products following incubation with HepaRG cells. HepaRG cells were incubated with […] of hepatocyte suspension medium containing 50 µmol/L of test compounds for the indicated times at 37°C. Hepatocyte suspension medium (125 µL) was then removed and added to 1 mL of blood that was then incubated for 5 minutes and then stimulated with opsonized zymosan (4 mg/mL) for 30 minutes at 37°C. Blood was then centrifuged and plasma was collected and added to 1.2 mL of CH3OH:CH3CN (1:1). Samples were processed for analysis using RP‐HPLC for LTB4 quantification. Data are expressed as means ± SEM of at least three independent experiments. *Difference from time = 0, as determined using One‐way ANOVA with Dunnett's multiple comparison test (P < .05)

5‐LO = target: T1, 5‐LO (Homo sapiens, UniProt P09917); test: Ex vivo whole blood stimulation with opsonized zymosan, 5‐LO products; assay type: cell-based; design: endogenous in cells; host or cells: human polymorphonuclear leukocytes isolated from heparinized blood; settings: 5‐LO product biosynthesis in whole blood, mean (95% confidence interval)
T1 sequence (P09917 1-674): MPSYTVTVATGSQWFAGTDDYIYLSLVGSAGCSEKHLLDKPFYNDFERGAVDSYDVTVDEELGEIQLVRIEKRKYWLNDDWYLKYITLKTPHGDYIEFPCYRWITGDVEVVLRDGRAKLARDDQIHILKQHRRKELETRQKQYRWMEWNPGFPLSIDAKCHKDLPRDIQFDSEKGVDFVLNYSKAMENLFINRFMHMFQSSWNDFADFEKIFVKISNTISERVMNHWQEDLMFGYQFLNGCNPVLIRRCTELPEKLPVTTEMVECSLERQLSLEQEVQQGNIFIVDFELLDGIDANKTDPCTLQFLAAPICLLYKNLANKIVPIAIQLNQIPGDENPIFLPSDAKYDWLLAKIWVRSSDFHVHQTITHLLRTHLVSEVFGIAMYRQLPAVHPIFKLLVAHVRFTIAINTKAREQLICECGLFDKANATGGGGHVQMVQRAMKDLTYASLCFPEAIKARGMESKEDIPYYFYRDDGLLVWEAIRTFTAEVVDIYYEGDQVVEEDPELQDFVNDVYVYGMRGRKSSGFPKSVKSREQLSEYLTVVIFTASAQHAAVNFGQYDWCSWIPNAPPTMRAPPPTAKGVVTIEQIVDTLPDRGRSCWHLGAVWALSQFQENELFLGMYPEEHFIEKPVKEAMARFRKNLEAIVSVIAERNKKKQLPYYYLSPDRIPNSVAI
Procedure: Blood was collected in tubes containing heparin as anticoagulant. Test compounds or their diluent control (DMSO, 0.1%) were added to 1 mL of heparinized blood at the indicated concentrations and incubated for 5 minutes in a water bath at 37°C. Stimulation was initiated with the addition of 125 μL of 40 mg/mL of opsonized zymosan, samples were then gently vortexed and incubated at 37°C for 30 minutes.34 Samples were then centrifuged at 960g for 10 minutes at 4°C, plasma was removed and added to tubes containing 4 volumes of CH3OH:CH3CN (1:1) containing 100 ng/mL of PGB2 as internal standard. Samples were stored overnight at −20°C, and then centrifuged at 3300g for 10 minutes. Samples were then purified on C18 cartridges, were eluted with CH3OH, dried under nitrogen, resuspended in 46% of CH3OH:CH3CN (1:1), and analyzed using RP‐HPLC as described above.

HepaRG cells [2] = test: Metabolite identification by LC‐MS/MS in HepaRG cell culture; assay type: in vitro ADME, human; settings: 50 µmol/L, 7.5 and 60 minutes
Procedure: as §1
In other experiments, LC‐MS/MS analysis was performed to identify metabolites of test compounds that had been incubated with HepaRG cells. First, fifty micromolar standards of the test compounds were diluted 3000‐fold and analyzed using electrospray ionization mass spectrometry on a linear quadrupole ion trap (LTQ‐XL) from Thermo‐Fisher Scientific (San Jose). Full scan spectra were collected using both ionization polarities for confirmation of the intact molecular weight of each compounds based on the expected [M + H]^+ and [M−H]^− pseudo‐molecular ions observed using mass spectrometry. The diluted standards were then subjected to reversed‐phase partition chromatography on an Altima C18 column produced by HiChrom and distributed by VWR (Mississsauga, ON). The LC system was a Dionex Ultimate 3000. The mass spectrometer electrospray source was used at 40 µL/min with a nitrogen sheath gas of 15, a spray voltage of ±4 kV, a capillary voltage of ±35 V, a tube lens of ±175 V and a capillary temperature of 160°C. Samples that had been collected from HepaRG cultures were purified on C18 cartridges and eluted with CH3OH. For the first injection of extracted samples, the MS method consisted of a repeated loop of full scan (m/z 100‐800), product ion scan based on the intact mass determined from infusion of the standards and one product ion scan. […]
Figure 7 Metabolite identification using negative ion LC‐MS/MS in HepaRG cell culture. […] Right panels show the MS and MS/MS of the generated metabolites detected at 60 minutes. […]

Row | Structure (SMILES) | Inhibitory activity against 5‐LO product biosynthesis after incubation with HepaRG cells (HepaRG cells [1]) | IC50 (5‐LO) [nM] | Metabolites formed in HepaRG cell culture (HepaRG cells [2]) | Inhibitory activity retained after incubation in HepaRG cultures (HepaRG cells [1]; after up to one hour of incubation) [%]
1 | O=C(/C=C/c1ccc(O)c(O)c1)OCCc1ccccc1 [CAPE (2), caffeic acid phenethyl ester, reference compound] | lost all their inhibitory activity | 3580 |  | 
2 | O=C(/C=C/c1cc(O)ccc1O)OCCc1ccccc1 [compound 5] | lost all their inhibitory activity | 1000 |  | 
3 | O=C(/C=C/c1ccc(O)c(O)c1)CCCc1ccccc1 [compound 7] | lost all their inhibitory activity | 2300 | α,β‐unsaturated ketone reduction | 
4 | O=C(/C=C/c1cc(O)ccc1O)CCc1ccccc1 [compound 8] | lost all their inhibitory activity | 1150 | α,β‐unsaturated ketone reduction | 
5 | COc1cc(/C=C/C(=O)CCc2ccccc2)cc(OC)c1O [compound 10, sinapic acid phenethyl ketone] | maintained significant inhibition | 1200 | α,β‐unsaturated ketone reduction | 50
